Data: patent publication US7935702B2, “Substituted biaryl quinolin-4-ylamine analogues” (Neurogen Corporation, priority 2004, dated 2011)

target: T1, human capsaicin receptor (Homo sapiens, UniProt Q8NER1); experiment: Calcium mobilization assay, determination of antagonist activity (Example 6); type: cell-based; set-up: IC50 determined as described in Example 6: scale not given here; conditions: cells expressing human capsaicin receptor; capsaicin at EC50
T1 construct: expressed in transfected cells
Experimental: A cDNA encoding full length human capsaicin receptor (SEQ ID NO:1, 2 or 3 of U.S. Pat. No. 6,482,611) is subcloned in the plasmid pBK-CMV (Stratagene, La Jolla, Calif.) for recombinant expression in mammalian cells.
Human embryonic kidney (HEK293) cells are transfected with the pBK-CMV expression construct encoding the full length human capsaicin receptor using standard methods. The transfected cells are selected for two weeks in media containing G418 (400 μg/ml) to obtain a pool of stably transfected cells. Independent clones are isolated from this pool by limiting dilution to obtain clonal stable cell lines for use in subsequent experiments.
This Example illustrates representative calcium mobilization assays for use in evaluating test compounds for agonist and antagonist activity.
Cells transfected with expression plasmids (as described in Example 4) and thereby expressing human capsaicin receptor are seeded and grown to 70-90% confluency in FALCON black-walled, clear-bottomed 96-well plates (#3904, BECTON-DICKINSON, Franklin Lakes, N.J.). The culture medium is emptied from the 96 well plates and FLUO-3 AM calcium sensitive dye (Molecular Probes, Eugene, Oreg.) is added to each well (dye solution: 1 mg FLUO-3 AM, 440 μL DMSO and 440 μl 20% pluronic acid in DMSO, diluted 1:250 in Krebs-Ringer HEPES (KRH) buffer (25 mM HEPES, 5 mM KCl, 0.96 mM NaH2PO4, 1 mM MgSO4, 2 mM CaCl2, 5 mM glucose, 1 mM probenecid, pH 7.4), 50 μl diluted solution per well). Plates are covered with aluminum foil and incubated at 37° C. for 1-2 hours in an environment containing 5% CO2. After the incubation, the dye is emptied from the plates, and the cells are washed once with KRH buffer, and resuspended in KRH buffer.
To measure the ability of a test compound to agonize or antagonize a calcium mobilization response in cells expressing capsaicin receptors to capsaicin or other vanilloid agonist, the EC50 of the agonist capsaicin is first determined. An additional 20 μl of KRH buffer and 1 μl DMSO is added to each well of cells, prepared as described above. 100 μl capsaicin in KRH buffer is automatically transferred by the FLIPR instrument to each well. Capsaicin-induced calcium mobilization is monitored using either FLUOROSKAN ASCENT (Labsystems; Franklin, Mass.) or FLIPR (fluorometric imaging plate reader system; Molecular Devices, Sunnyvale, Calif.) instruments. Data obtained between 30 and 60 seconds after agonist application are used to generate an 8-point concentration response curve, with final capsaicin concentrations of 1 nM to 3 μM. KALEIDAGRAPH software (Synergy Software, Reading, Pa.) is used to fit the data to the equation: y=a*(1/(1+(b/x)^c)) to determine the 50% excitatory concentration (EC50) for the response. In this equation, y is the maximum fluorescence signal, x is the concentration of the agonist or antagonist (in this case, capsaicin), a is the Emax, b corresponds to the EC50 value and c is the Hill coefficient. Determination of Agonist Activity
Test compounds are dissolved in DMSO, diluted in 20 μl KRH buffer so that the final concentration of test compounds in the assay well is between 1 μM and 5 μM, and added to cells prepared as described above. The 96 well plates containing prepared cells and test compounds are incubated in the dark, at room temperature for 0.5 to 6 hours. It is important that the incubation not continue beyond 6 hours. Just prior to determining the fluorescence response, 100 μl capsaicin in KRH buffer at twice the EC50 concentration determined as described above is automatically added by the FLIPR instrument to each well of the 96 well plate for a final sample volume of 200 μl and a final capsaicin concentration equal to the EC50. The final concentration of test compounds in the assay wells is between 1 μM and 5 μM. […]

T1 sequence (Q8NER1 whole entry): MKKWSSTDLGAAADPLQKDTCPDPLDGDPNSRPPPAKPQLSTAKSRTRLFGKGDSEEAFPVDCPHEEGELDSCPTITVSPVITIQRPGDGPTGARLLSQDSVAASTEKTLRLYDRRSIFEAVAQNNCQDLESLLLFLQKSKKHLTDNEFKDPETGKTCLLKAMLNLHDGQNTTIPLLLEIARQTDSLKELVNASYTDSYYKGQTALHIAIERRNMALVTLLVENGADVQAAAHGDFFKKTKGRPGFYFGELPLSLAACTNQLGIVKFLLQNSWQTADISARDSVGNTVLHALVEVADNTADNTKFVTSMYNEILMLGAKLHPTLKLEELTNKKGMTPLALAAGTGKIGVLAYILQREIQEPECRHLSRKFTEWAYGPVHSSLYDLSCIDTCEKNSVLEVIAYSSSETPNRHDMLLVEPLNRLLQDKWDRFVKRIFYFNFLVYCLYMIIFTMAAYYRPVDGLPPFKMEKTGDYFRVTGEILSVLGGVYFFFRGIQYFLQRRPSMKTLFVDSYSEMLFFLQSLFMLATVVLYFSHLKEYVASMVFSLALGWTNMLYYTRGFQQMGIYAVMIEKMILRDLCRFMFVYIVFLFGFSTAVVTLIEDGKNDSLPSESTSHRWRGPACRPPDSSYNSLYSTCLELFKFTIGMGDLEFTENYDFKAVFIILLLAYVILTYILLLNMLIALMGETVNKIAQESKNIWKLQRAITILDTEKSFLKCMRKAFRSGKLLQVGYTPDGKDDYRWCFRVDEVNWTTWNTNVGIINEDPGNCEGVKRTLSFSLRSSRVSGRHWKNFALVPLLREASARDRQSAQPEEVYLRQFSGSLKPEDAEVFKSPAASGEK

| IC50 determined as described in Example 6 | SMILES |
| --- | --- |
| less | N#Cc1cnc(-c2cnc3c(Nc4ccc(C(F)(F)F)cn4)ccnc3n2)c(C(F)(F)F)c1 [Compound 11, 5-(Trifluoromethyl)-6-(8-(5-(trifluoromethyl)pyridin-2-ylamino)pyrido[2,3-b]pyrazin-3-yl)nicotinonitrile] |

same assay, conditions: cells expressing human capsaicin receptor; capsaicin at EC50; read-out: IC50 determined as described in Example 6

| IC50 [nM] | SMILES |
| --- | --- |
| < 1000 | Cc1cc(F)cnc1-c1ccc2c(Nc3ccc(C(F)(F)F)cn3)ccnc2n1 [Compound 2, 7-(5-Fluoro-3-methylpyridin-2-yl)-N-(5-(trifluoromethyl)ipyridin-2-yl)-1,8-naphthyridin-4-amine] |
| < 1000 | Nc1cnc(-c2ccc3c(Nc4ccc(C(F)(F)F)cn4)ccnc3n2)c(C(F)(F)F)c1 [Compound 3, 7-(5-Amino-3-(trifluoromethyl)pyridin-2-yl)-N-(5-(trifluoromethyl)pyridin-2-yl)-1,8-naphthyridin-4-amine] |
| < 1000 | NC(=O)c1cnc(-c2cnc3c(Nc4ccc(C(F)(F)F)cn4)ccnc3n2)c(C(F)(F)F)c1 [Compound 4, 5-Trifluoromethyl-6-[8-(5-trifluoromethyl-pyridin-2-ylamino)-pyrido[2,3-b]pyrazin-3-yl]-nicotinamide] |
| < 1000 | COc1ccc(C(F)(F)F)c(-c2ccc3c(Nc4ccc(C(F)(F)F)cn4)ccnc3n2)n1 [Compound 5, [7-(6-Methoxy-3-trifluoromethyl-pyridin-2-yl)-[1,8]naphthyridin-4-yl]-(5-trifluoromethyl-pyridin-2-yl)-amine] |
| < 1000 | COc1ccc(C(F)(F)F)c(-c2ccc3c(Nc4ncc(C(F)(F)F)cn4)ccnc3n2)n1 [Compound 6, [7-(6-Methoxy-3-trifluoromethyl-pyridin-2-yl)-[1,8]naphthyridin-4-yl]-(5-trifluoromethyl-pyrimidin-2-yl)-amine] |
| < 1000 | N#Cc1cnc(-c2ccc3c(Nc4ccc(C(F)(F)F)cn4)ccnc3n2)c(C(F)(F)F)c1 [Compound 7, 5-Trifluoromethyl-6-[5-(5-trifluoromethyl-pyridin-2-ylamino)-[1,8]naphthyridin-2-yl]-nicotinonitrile] |
| < 1000 | NC(=O)c1cnc(-c2ccc3c(Nc4ccc(C(F)(F)F)cn4)ccnc3n2)c(C(F)(F)F)c1 [Compound 8, 5-Trifluoromethyl-6-[5-(5-trifluoromethyl-pyridin-2-ylamino)-[1,8]naphthyridin-2-yl]-nicotinamide] |
| < 1000 | CCOc1nc(Nc2ccnc3nc(-c4ncc(C(N)=O)cc4C(F)(F)F)cnc23)ccc1C(F)(F)F [Compound 9, 6-(8-(6-Ethoxy-5-(trifluoromethyl)pyridin-2-ylamino)pyrido[2,3-b]pyrazin-3-yl)-5-(trifluoromethyl)nicotinamide] |
| < 1000 | FC(F)(F)c1ccc(Nc2ccnc3nc(-c4ncc(Br)cc4C(F)(F)F)cnc23)nc1 [Compound 10, 3-(5-Bromo-3-(trifluoromethyl)pyridin-2-yl)-N-(5-(trifluoromethyl)pyridin-2-yl)pyrido[2,3-b]pyrazin-8-amine] |
| < 1000 | O=C(O)c1cnc(-c2cnc3c(Nc4ccc(C(F)(F)F)cn4)ccnc3n2)c(C(F)(F)F)c1 [Compound 13, 5-(Trifluoromethyl)-6-(8-(5-(trifluoromethyl)pyridin-2-ylamino)pyrido[2,3-b]pyrazin-3-yl)nicotinic acid] |
| < 1000 | NC(=O)c1cnc(-c2cnc3c(Nc4cnc5ccccc5n4)ccnc3n2)c(C(F)(F)F)c1 [Compound 14, 6-(8-(Quinoxalin-2-ylamino)pyrido[2,3-b]pyrazin-3-yl)-5-(trifluoromethyl)nicotinamide] |
| < 1000 | NC(=O)c1cnc(-c2cnc3c(Nc4cnc(C(F)(F)F)cn4)ccnc3n2)c(C(F)(F)F)c1 [Compound 15, 5-(Trifluoromethyl)-6-(8-(5-(trifluoromethyl)pyrazin-2-ylamino)pyrido[2,3-b]pyrazin-3-yl)nicotinamide] |
| < 1000 | CCOc1cc(C(F)(F)F)c(-c2cnc3c(Nc4ccc(C(F)(F)F)cn4)ccnc3n2)nn1 [Compound 16] |
| < 1000 | FC(F)(F)c1ccc(Nc2ccnc3nc(-c4nnc(N5CCOCC5)cc4C(F)(F)F)cnc23)nc1 [Compound 19] |
